Reference: PubChem BioAssay AID1919015 (Molecular Pharmacology Branch, DTP, NCI, 2023)
pIC50: −log10 of the molar value.

System: OVCAR-5 complex spheroids with HUVEC/MSC, viability, % test/control
Assay: Anticancer human tumor OVCAR-5 cell line growth inhibition [AhR];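 note: spheroids exposed to compounds for 7 days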;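 for viability, T/C: 100% = DMSO vehicle control wells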
Settings: for pIC50: curve of first compound; for viability, T/C: stronger effect = lower value
Procedure, shortened: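 Spheroids combined tumor cells with HUVEC endothelial cells and human MSCs as stroma. AhR antagonists were paired with standard or investigational drugs, each dosed in half-log steps down from near clinical Cmax, or from 10 microM where Cmax was unknown.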

[1] = second compound 0.1 µM, first compound 0.0316 µM
[2] = second compound 0.1 µM, first compound 0.1 µM
[3] = second compound 0.1 µM, first compound 0.316 µM
[4] = second compound 0.1 µM, first compound 1 µM
[5] = second compound 0.1 µM, first compound 3.16 µM
[6] = second compound 0.1 µM, first compound 10 µM
[7] = second compound 0.316 µM, first compound 0.0316 µM
[8] = second compound 0.316 µM, first compound 0.1 µM
[9] = second compound 0.316 µM, first compound 0.316 µM
[10] = second compound 0.316 µM, first compound 1 µM
[11] = second compound 0.316 µM, first compound 3.16 µM
[12] = second compound 0.316 µM, first compound 10 µM
[13] = second compound 1 µM, first compound 0.0316 µM
[14] = second compound 1 µM, first compound 0.1 µM
[15] = second compound 1 µM, first compound 0.316 µM
[16] = second compound 1 µM, first compound 1 µM
[17] = second compound 1 µM, first compound 3.16 µM
[18] = second compound 1 µM, first compound 10 µM
[19] = second compound 3.16 µM, first compound 0.0316 µM
[20] = second compound 3.16 µM, first compound 0.1 µM
[21] = second compound 3.16 µM, first compound 0.316 µM
[22] = second compound 3.16 µM, first compound 1 µM
[23] = second compound 3.16 µM, first compound 3.16 µM
[24] = second compound 3.16 µM, first compound 10 µM
[25] = second compound 10 µM, first compound 0.0316 µM
[26] = second compound 10 µM, first compound 0.1 µM
[27] = second compound 10 µM, first compound 0.316 µM
[28] = second compound 10 µM, first compound 1 µM
[29] = second compound 10 µM, first compound 3.16 µM
[30] = second compound 10 µM, first compound 10 µM

## CC1(C)CCC(CN2CCN(c3ccc(C(=O)NS(=O)(=O)c4ccc(NCC5CCOCC5)c([N+](=O)[O-])c4)c(Oc4cnc5[nH]ccc5c4)c3)CC2)=C(c2ccc(Cl)cc2)C1 + Cc1cncc(-c2nc(NCCc3c[nH]c4ccccc34)c3ncn(C(C)C)c3n2)c1
Second compound 0.1 µM
  pIC50: < 5.00
Second compound 0.316 µM
  pIC50: < 5.00
Second compound 1 µM
  pIC50: < 5.00
Second compound 3.16 µM
  pIC50: < 5.00
Second compound 10 µM
  pIC50: > 7.50
[1]
  viability, T/C: 105%
[2]
  viability, T/C: 103%
[3]
  viability, T/C: 106%
[4]
  viability, T/C: 106%
[5]
  viability, T/C: 109%
[6]
  viability, T/C: 90.1%
[7]
  viability, T/C: 101%
[8]
  viability, T/C: 103%
[9]
  viability, T/C: 102%
[10]
  viability, T/C: 105%
[11]
  viability, T/C: 109%
[12]
  viability, T/C: 89.5%
[13]
  viability, T/C: 101%
[14]
  viability, T/C: 100%
[15]
  viability, T/C: 102%
[16]
  viability, T/C: 103%
[17]
  viability, T/C: 104%
[18]
  viability, T/C: 86.8%
[19]
  viability, T/C: 81.5%
[20]
  viability, T/C: 85.6%
[21]
  viability, T/C: 86.3%
[22]
  viability, T/C: 83.4%
[23]
  viability, T/C: 88.5%
[24]
  viability, T/C: 75.3%
[25]
  viability, T/C: 4.28%
[26]
  viability, T/C: 4.26%
[27]
  viability, T/C: 5.72%
[28]
  viability, T/C: 3.52%
[29]
  viability, T/C: 4.43%
[30]
  viability, T/C: 9.47%

## CCN(c1cc(-c2ccc(CN3CCOCC3)cc2)cc(C(=O)NCc2c(C)cc(C)[nH]c2=O)c1C)C1CCOCC1 + Cc1cncc(-c2nc(NCCc3c[nH]c4ccccc34)c3ncn(C(C)C)c3n2)c1
Second compound 0.1 µM
  pIC50: < 5.52
Second compound 0.316 µM
  pIC50: < 5.52
Second compound 1 µM
  pIC50: < 5.52
Second compound 3.16 µM
  pIC50: < 5.52
Second compound 10 µM
  pIC50: > 8.02
Second compound 0.1 µM, first compound 0.00949 µM
  viability, T/C: 101%
Second compound 0.1 µM, first compound 0.03 µM
  viability, T/C: 101%
Second compound 0.1 µM, first compound 0.0949 µM
  viability, T/C: 98.9%
Second compound 0.1 µM, first compound 0.3 µM
  viability, T/C: 97.3%
Second compound 0.1 µM, first compound 0.949 µM
  viability, T/C: 97.1%
Second compound 0.1 µM, first compound 3 µM
  viability, T/C: 96.7%
Second compound 0.316 µM, first compound 0.00949 µM
  viability, T/C: 102%
Second compound 0.316 µM, first compound 0.03 µM
  viability, T/C: 100%
Second compound 0.316 µM, first compound 0.0949 µM
  viability, T/C: 96.5%
Second compound 0.316 µM, first compound 0.3 µM
  viability, T/C: 97.8%
Second compound 0.316 µM, first compound 0.949 µM
  viability, T/C: 94.7%
Second compound 0.316 µM, first compound 3 µM
  viability, T/C: 98.2%
Second compound 1 µM, first compound 0.00949 µM
  viability, T/C: 93.4%
Second compound 1 µM, first compound 0.03 µM
  viability, T/C: 93.4%
Second compound 1 µM, first compound 0.0949 µM
  viability, T/C: 97%
Second compound 1 µM, first compound 0.3 µM
  viability, T/C: 90.6%
Second compound 1 µM, first compound 0.949 µM
  viability, T/C: 89.7%
Second compound 1 µM, first compound 3 µM
  viability, T/C: 89.6%
Second compound 3.16 µM, first compound 0.00949 µM
  viability, T/C: 78.5%
Second compound 3.16 µM, first compound 0.03 µM
  viability, T/C: 79%
Second compound 3.16 µM, first compound 0.0949 µM
  viability, T/C: 80.2%
Second compound 3.16 µM, first compound 0.3 µM
  viability, T/C: 75.3%
Second compound 3.16 µM, first compound 0.949 µM
  viability, T/C: 72.7%
Second compound 3.16 µM, first compound 3 µM
  viability, T/C: 70.4%
Second compound 10 µM, first compound 0.00949 µM
  viability, T/C: 14.8%
Second compound 10 µM, first compound 0.03 µM
  viability, T/C: 16%
Second compound 10 µM, first compound 0.0949 µM
  viability, T/C: 15.4%
Second compound 10 µM, first compound 0.3 µM
  viability, T/C: 6.52%
Second compound 10 µM, first compound 0.949 µM
  viability, T/C: 2.63%
Second compound 10 µM, first compound 3 µM
  viability, T/C: 1.33%

## Cn1ncnc1C1c2n[nH]c(=O)c3cc(F)cc(c23)NC1c1ccc(F)cc1 (stereo not given) + Cc1cncc(-c2nc(NCCc3c[nH]c4ccccc34)c3ncn(C(C)C)c3n2)c1
Second compound 0.1 µM
  pIC50: < 7.00
Second compound 0.316 µM
  pIC50: < 7.00
Second compound 1 µM
  pIC50: < 7.00
Second compound 3.16 µM
  pIC50: < 7.00
Second compound 10 µM
  pIC50: > 9.50
Second compound 0.1 µM, first compound 0.000316 µM
  viability, T/C: 99.4%
Second compound 0.1 µM, first compound 0.001 µM
  viability, T/C: 102%
Second compound 0.1 µM, first compound 0.00316 µM
  viability, T/C: 103%
Second compound 0.1 µM, first compound 0.01 µM
  viability, T/C: 104%
[1]
  viability, T/C: 101%
[2]
  viability, T/C: 99.2%
Second compound 0.316 µM, first compound 0.000316 µM
  viability, T/C: 101%
Second compound 0.316 µM, first compound 0.001 µM
  viability, T/C: 104%
Second compound 0.316 µM, first compound 0.00316 µM
  viability, T/C: 100%
Second compound 0.316 µM, first compound 0.01 µM
  viability, T/C: 99.2%
[7]
  viability, T/C: 99.4%
[8]
  viability, T/C: 95.2%
Second compound 1 µM, first compound 0.000316 µM
  viability, T/C: 98.1%
Second compound 1 µM, first compound 0.001 µM
  viability, T/C: 97.9%
Second compound 1 µM, first compound 0.00316 µM
  viability, T/C: 95.8%
Second compound 1 µM, first compound 0.01 µM
  viability, T/C: 96.4%
[13]
  viability, T/C: 94.6%
[14]
  viability, T/C: 93.6%
Second compound 3.16 µM, first compound 0.000316 µM
  viability, T/C: 85%
Second compound 3.16 µM, first compound 0.001 µM
  viability, T/C: 87.3%
Second compound 3.16 µM, first compound 0.00316 µM
  viability, T/C: 86.3%
Second compound 3.16 µM, first compound 0.01 µM
  viability, T/C: 87.7%
[19]
  viability, T/C: 83.4%
[20]
  viability, T/C: 89.5%
Second compound 10 µM, first compound 0.000316 µM
  viability, T/C: 26.6%
Second compound 10 µM, first compound 0.001 µM
  viability, T/C: 28.5%
Second compound 10 µM, first compound 0.00316 µM
  viability, T/C: 30.9%
Second compound 10 µM, first compound 0.01 µM
  viability, T/C: 27.2%
[25]
  viability, T/C: 23%
[26]
  viability, T/C: 30.7%

## NS(=O)(=O)OCC1CC(n2ccc3c(NC4CCc5ccccc54)ncnc32)CC1O (stereo not given) + Cc1cncc(-c2nc(NCCc3c[nH]c4ccccc34)c3ncn(C(C)C)c3n2)c1
Second compound 0.1 µM
  pIC50: 6.82
Second compound 0.316 µM
  pIC50: 6.94
Second compound 1 µM
  pIC50: 7.04
Second compound 3.16 µM
  pIC50: 7.01
Second compound 10 µM
  pIC50: > 7.50
[1]
  viability, T/C: 86.4%
[2]
  viability, T/C: 57.5%
[3]
  viability, T/C: 37.2%
[4]
  viability, T/C: 17.6%
[5]
  viability, T/C: 13.1%
[6]
  viability, T/C: 12.2%
[7]
  viability, T/C: 78%
[8]
  viability, T/C: 51.5%
[9]
  viability, T/C: 33%
[10]
  viability, T/C: 16.5%
[11]
  viability, T/C: 13.6%
[12]
  viability, T/C: 12.3%
[13]
  viability, T/C: 69.7%
[14]
  viability, T/C: 47.4%
[15]
  viability, T/C: 31.6%
[16]
  viability, T/C: 16.6%
[17]
  viability, T/C: 11.3%
[18]
  viability, T/C: 10.7%
[19]
  viability, T/C: 64%
[20]
  viability, T/C: 50.2%
[21]
  viability, T/C: 22.7%
[22]
  viability, T/C: 10.7%
[23]
  viability, T/C: 6.17%
[24]
  viability, T/C: 4.99%
[25]
  viability, T/C: 3.84%
[26]
  viability, T/C: 3.41%
[27]
  viability, T/C: 2.74%
[28]
  viability, T/C: 2.03%
[29]
  viability, T/C: 0.83%
[30]
  viability, T/C: 0.48%
